# Data taken from patent publication US4536335A, “Carbapenem antibiotics” (Bristol-Myers Company, priority 1983, dated 1985).
# Where two headings read alike, the source gives them in different places.
# Key:
# [1] = tested on: various Pseudomonas species; details: prior art description; cited from earlier work
# [2] = tested on: S. pneumoniae A-9585; assay: In vitro MIC, tube dilution; format: cell-based; details: Streptococcus pneumoniae, A9585, Nutrient Broth, overnight incubation at 37° C.
# [3] = tested on: S. pyogenes A-9604; assay: In vitro MIC, tube dilution; format: cell-based; details: Streptococcus pyogenes, A9604, tube dilution, Nutrient Broth, overnight incubation at 37° C.
# [4] = tested on: S. aureus A-9537; assay: In vitro MIC, tube dilution; format: cell-based; details: Staphylococcus aureus, overnight incubation at 37° C.
# [5] = tested on: S. aureus A-9606 (Pen-res.); assay: In vitro MIC, tube dilution; format: cell-based; details: Staphylococcus aureus, Nutrient Broth, overnight incubation at 37° C., read-out: MIC S. aureus A-9606 (Pen-res.)
# [6] = tested on: S. faecalis A20688; assay: In vitro MIC, tube dilution; format: cell-based; details: Enterococcus faecalis, A20688, tube dilution, Nutrient Broth, overnight incubation at 37° C.
# [7] = tested on: E. coli A15119; assay: In vitro MIC, tube dilution; format: cell-based; details: Escherichia coli, A15119, tube dilution, Nutrient Broth, overnight incubation at 37° C.
# [8] = tested on: E. coli A20341-1; assay: In vitro MIC, tube dilution; format: cell-based; details: Escherichia coli, A203411, tube dilution, Nutrient Broth, overnight incubation at 37° C.
# [9] = tested on: K. pneumoniae A-9664; assay: In vitro MIC, tube dilution; format: cell-based; details: Klebsiella pneumoniae, A9664, tube dilution, Nutrient Broth, overnight incubation at 37° C.
# [10] = tested on: K. pneumoniae A20468; assay: In vitro MIC, tube dilution; format: cell-based; details: Klebsiella pneumoniae, A20468, tube dilution, Nutrient Broth, overnight incubation at 37° C.
# [11] = tested on: P. mirabilis A-9900; assay: In vitro MIC, tube dilution; format: cell-based; details: Proteus mirabilis, A9900, tube dilution, Nutrient Broth, overnight incubation at 37° C.
# [12] = tested on: P. vulgaris A21559; assay: In vitro MIC, tube dilution; format: cell-based; details: Proteus vulgaris, A21559, tube dilution, Nutrient Broth, overnight incubation at 37° C.
# [13] = tested on: P. morganii A15153; assay: In vitro MIC, tube dilution; format: cell-based; details: Morganella morganii, A15153, tube dilution, Nutrient Broth, overnight incubation at 37° C.; read-out: MIC P. morganii A15153
# [14] = tested on: P. rettgeri A22424; assay: In vitro MIC, tube dilution; format: cell-based; details: Providencia rettgeri, A22424, tube dilution, Nutrient Broth, overnight incubation at 37° C.
# [15] = tested on: S. marcescens A20019; assay: In vitro MIC, tube dilution; format: cell-based; details: Serratia marcescens, A20019; tube dilution, Nutrient Broth, overnight incubation at 37° C.
# [16] = tested on: B. fragilis A22053; assay: In vitro MIC, tube dilution; format: cell-based; details: Bacteroides fragilis, Nutrient Broth, overnight incubation at 37° C.
# From the text: (§1) N-Formimidoyl thienamycin was included as a comparison compound.
# [17] = tested on: B. fragilis A22696; assay: In vitro MIC, tube dilution; format: cell-based; details: Bacteroides fragilis, Nutrient Broth, overnight incubation at 37° C.
# From the text: as §1
# [18] = tested on: B. fragilis A22862; assay: In vitro MIC, tube dilution; format: cell-based; details: Bacteroides fragilis, Nutrient Broth, overnight incubation at 37° C.
# From the text: as §1
# [19] = tested on: B. fragilis A22863; assay: In vitro MIC, tube dilution; format: cell-based; details: Bacteroides fragilis, Nutrient Broth, overnight incubation at 37° C.
# From the text: as §1
# [20] = tested on: E. cloacae A-9569; assay: In vitro MIC, tube dilution; format: cell-based; details: Enterobacter cloacae, A9569, Nutrient Broth, overnight incubation at 37° C.
# From the text: as §1
# [21] = tested on: E. cloacae A-9656; assay: In vitro MIC, tube dilution; format: cell-based; details: Enterobacter cloacae, A9656; tube dilution, Nutrient Broth, overnight incubation at 37° C.
# [22] = tested on: P. aeruginosa A-9843A; assay: In vitro MIC, tube dilution; format: cell-based; details: Pseudomonas aeruginosa, A9843A, Nutrient Broth, overnight incubation at 37° C.
# [23] = tested on: P. aeruginosa A21213; assay: In vitro MIC, tube dilution; format: cell-based; details: Pseudomonas aeruginosa, A21213, tube dilution, Nutrient Broth, overnight incubation at 37° C.
# [24] = tested on: P. mirabilis A-9900; assay: Protective effect in the intramuscular treatment of infected mice (PD50); format: in vivo; details: Proteus mirabilis, A9900, im, read-out: PD50/Treatment, P. mirabilis A-9900
# Experimental: (§2) Treatment Schedule: Mice were treated i.m. with drugs 0 and 2 hours post-infection; 5 mice per dose were used for each test
# [25] = tested on: P. aeruginosa A-9843a; assay: as above; format: in vivo; details: Pseudomonas aeruginosa, A9843A, im; mice, challenge 3 × 10^6 organisms, treated i.m. 0 and 2 hours post-infection; read-out: PD50/Treatment, P. aeruginosa A-9843a
# Experimental: The PD50 (dose in mg/kg required to give protection to 50% of the infected mice) is indicated.
# as §2
# *For compound of Ex. 2, mice were infected i.p. with 2 × 10^9
# compounds of Ex. 4 and 5, mice were infected i.p. with ~9 ×
# were treated i.m. with drugs 0 and 2 h postinfection.
# [26] = Toxicity after intracranial administration to mice; details: mouse, in vivo
# From the text: | *Average of 25/mice/compound
# [27] = Blood levels in mice after intramuscular administration; format: in vivo; details: mouse, blood, im, mice, i.m. 20 mg/kg
# From the text: Compounds were solubilized in 0.1 M phosphate buffer pH 7. Values are fro
# a single test; 4 mice used per compound.
# *t1/2 refers to halflife in minutes
# **AUC refers to the area under the blood concentrationtime curve
# (§3) Also shown is the urinary recovery in the mice.
# Compounds were solubilized in 0.1 M phosphate buffer, pH 7.
# Values based on a single test; 4 mice per compound.
# *T1/2 refers to halflife in minutes
# [28] = Urinary recovery after intramuscular administration to mice; format: in vivo; details: mouse, urine, im, 20 mg/kg, mice, i.m. 20 mg/kg
# Experimental: Compounds were solubilized in 0.1 M phosphate buffer pH 7. Values are from a single test; 4 mice per compound.
# as §3
# ***Recovery based on 0-6 hour collection
compound,measurement,setting,value
"C[C@@H](O)[C@H]1C(=O)N2C(C(=O)O)=C(SCCN)C[C@H]12 [Thienamycin, thienamycin]",activity against various Pseudomonas species,[1],notable activity
"C[C@@H](O)[C@H]1C(=O)N2C(C(=O)[O-])=C(SCC[N+]3(C)CCCC3)C[C@H]12 [Example 1, 3-[2-(N-methylpyrrolidinium)ethylthio]-6α-[1-(R)-hydroxyethyl]-7-oxo-1-azabicyclo [3.2.0]hept-2-ene-2-carboxylate]",MIC,[2],0.002 µg/mL
same,MIC,[3],0.002 µg/mL
same,MIC,"[4]; A9537, + 50% serum, tube dilution, read-out: MIC S. aureus + 50% serum A-9537",0.016 µg/mL
same,MIC,"[4]; A9537, tube dilution, Nutrient Broth, read-out: MIC S. aureus A-9537",0.008 µg/mL
same,MIC,[5],0.016 µg/mL
same,MIC,[6],1 µg/mL
same,MIC,[7],0.03 µg/mL
same,MIC,[8],0.03 µg/mL
same,MIC,[9],0.06 µg/mL
same,MIC,[10],0.13 µg/mL
same,MIC,[11],0.13 µg/mL
same,MIC,[12],0.03 µg/mL
same,MIC,[13],0.13 µg/mL
same,MIC,[14],0.25 µg/mL
same,MIC,[15],0.06 µg/mL
same,MIC,[16],0.25 µg/mL
same,MIC,[17],0.5 µg/mL
same,MIC,[18],0.13 µg/mL
same,MIC,[19],0.13 µg/mL
same,MIC,[20],0.25 µg/mL
same,MIC,[21],0.13 µg/mL
same,MIC,[22],4 µg/mL
same,MIC,[23],0.25 µg/mL
same,ED50,[24],> 10 mg/kg
same,ED50,[25],3 mg/kg
same,NOAEL,[26],> 10 mg/kg
same,LD50,"[26]; intracranial administration to mice, average of 25 mice/compound",> 10 mg/kg
same,AUC,"[27]; 20 mg/kg, Example 1 table, read-out: AUC (area under the blood concentration-time curve)",5400 ng·h/mL
same,half-life,"[27]; 20 mg/kg, Example 1 table, read-out: t1/2 (half-life in blood)",11 min
same,concentration at 10 min,"[27]; 10 min, read-out: Blood Level 10 minutes after administration",13700 ng/mL
same,concentration at 20 min,"[27]; 20 min, read-out: Blood Level 20 minutes after administration",10200 ng/mL
same,concentration at 0.5 h,"[27]; 30 min, read-out: Blood Level 30 minutes after administration",5700 ng/mL
same,concentration at 0.75 h,"[27]; 45 min, read-out: Blood Level 45 minutes after administration",2100 ng/mL
same,concentration at 1 h,"[27]; 60 min, read-out: Blood Level 60 minutes after administration",< 600 ng/mL
same,concentration at […],"[27]; 90 min, read-out: Blood Level 90 minutes after administration",< 600 ng/mL
same,dose excreted at 3 h,"[28]; 0-3 hours after administration, read-out: Percentage of Dose Recovered in urine, 0-3 hours",18.8%
same,dose excreted at 24 h,"[28]; 0-24 hours after administration, read-out: Percentage of Dose Recovered in urine, 0-24 hours",19.5 ± 3.2%
same,dose excreted at 6 h,"[28]; 3-6 hours after administration, read-out: Percentage of Dose Recovered in urine, 3-6 hours",0.6%
same,dose excreted at 24 h,"[28]; 6-24 hours after administration, read-out: Percentage of Dose Recovered in urine, 6-24 hours",0.1%
